Results as given in patent publication US20260334439A1, “BCAT2 INHIBITORS” (Agios Pharmaceuticals, Inc., priority 2023, published 2026).

target: T1, BCAT2 (Homo sapiens, UniProt O15382); test: BCAT2 in vitro enzyme inhibition assay (hBCAT2, glutamate dehydrogenase/diaphorase/resazurin coupled fluorescence read); assay type: biochemical; conditions: hBCAT2, 1 h preincubation at 25° C., one hour reaction; average where tested multiple times
T1 sequence (O15382 28-392): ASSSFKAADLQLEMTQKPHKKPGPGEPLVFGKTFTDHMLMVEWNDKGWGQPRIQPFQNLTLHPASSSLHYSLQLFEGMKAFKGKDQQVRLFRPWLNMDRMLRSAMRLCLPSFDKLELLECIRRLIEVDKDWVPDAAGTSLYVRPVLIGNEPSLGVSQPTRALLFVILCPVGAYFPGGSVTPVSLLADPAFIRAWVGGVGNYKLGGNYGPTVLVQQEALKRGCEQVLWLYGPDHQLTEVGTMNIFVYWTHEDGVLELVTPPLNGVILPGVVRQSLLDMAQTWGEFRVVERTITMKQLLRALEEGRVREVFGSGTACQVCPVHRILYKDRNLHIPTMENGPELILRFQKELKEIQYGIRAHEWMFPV
Protocol: • 2×Buffer: 200 mM Tris pH 8.0, 300 mM NaCl, 0.1% BSA • 1.67×hBCAT2 Enzyme Mix: 0.33 μg/mL hBCAT2, 1× Buffer • 2.5×Substrate Mix: 460 µM L-leucine, 420 µM α-KetoGlutarate, 10 U/mL glutamate dehydrogenase, 10 mM NAD, […] diaphorase, […] Resazurin
BCAT2 enzyme stock solution was diluted to prepare a 1.67×hBCAT2 Enzyme Mix. 1 μL of test compound was first added to the reaction wells followed by 30 μL of 1.67×hBCAT2 Enzyme Mix and incubated at room temperature (25° C.) for one hour. Meanwhile the Substrate Mix was prepared. The reaction was initiated by the addition of 20 μL of the 2.5×Substrate Mix, bringing the final reaction mix of all components to 1×. Reactions were quenched after one hour by the addition of 25 μL of 6% SDS and reaction progress was measured via fluorescence read (Ex 540/Em 590).
Test compounds were prepared at 50×final concentration in DMSO, 1 to 3 dilutions were made for 10 points. The compounds were added to the assay as a 1 to 50 dilution (1 μL in 50 μL) to yield a top assay final concentration of 100 μM, decreasing 3-fold for 10 points. Each compound dilution series test also included an assay max (1 μL DMSO Added in lieu of compound, Full Reaction Components Included) and Min (1 μL DMSO Added in lieu of compound, 30 μl of 1.67×hBCAT2 Enzyme Mix replated by 30 μL of 1×Buffer). All tests were performed in technical duplicate.
Where a compound was tested multiple times, the average value of the tests is reported.

Structure (SMILES)	IC50 [µM]
CC(C)Cc1nc2cnc(-c3nc[nH]n3)cc2n1[C@@H]1CCC[C@H](NC(=O)c2cc(Cl)ccc2OC2CC2)C1 [Example 79, 5-chloro-2-cyclopropoxy-N-((1S,3R)-3-(2-isobutyl-6-(1H-1,2,4-triazol-3-yl)-1H-imidazo[4,5-c]pyridin-1-yl)cyclohexyl)benzamide]	< 0.1
O=C(N[C@H]1CCC[C@@H](n2c(CCC3CCOC3)nc3cnc(-c4nc[nH]n4)cc32)C1)c1cc(Cl)ccn1 (stereo partly drawn) [Example 94, 4-chloro-N-((1S,3R)-3-(2-(2-(tetrahydrofuran-3-yl)ethyl)-6-(1H-1,2,4-triazol-3-yl)-1H-imidazo[4,5-c]pyridin-1-yl)cyclohexyl)picolinamide]	> 1
CC(C)Cc1nc2cnc(-c3nc[nH]n3)cc2n1[C@@H]1CCC[C@H](NC(=O)c2cc(F)ccc2F)[C@H]1O [Example 121, 2,5-difluoro-N-((1S,2R,3R)-2-hydroxy-3-(2-isobutyl-6-(1H-1,2,4-triazol-3-yl)-1H-imidazo[4,5-c]pyridin-1-yl)cyclohexyl)benzamide]	0.1 to 0.5
CCNCc1nc2cnc(-c3nc[nH]n3)cc2n1[C@@H]1CCC[C@H](NC(=O)c2cc(Cl)ccn2)C1 [Example 38, 4-chloro-N-((1S,3R)-3-(2-((ethylamino)methyl)-6-(1H-1,2,4-triazol-3-yl)-1H-imidazo[4,5-c]pyridin-1-yl)cyclohexyl)picolinamide]	> 1
COc1ccnc(C(=O)N[C@H]2CCC[C@@H](n3c(-c4ccccc4F)nc4cnc(-c5nc[nH]n5)cc43)C2)c1 [Example 60, N-((1S,3R)-3-(2-(2-fluorophenyl)-6-(1H-1,2,4-triazol-3-yl)-1H-imidazo[4,5-c]pyridin-1-yl)cyclohexyl)-4-methoxypicolinamide]	< 0.1
Cc1coc(-c2cc3c(cn2)nc(-c2ccccc2F)n3[C@@H]2CCC[C@H](N3Cc4ccc(F)cc4C3=O)[C@H]2O)n1 [Example 193, 6-fluoro-2-((1S,2S,3R)-3-(2-(2-fluorophenyl)-6-(4-methyloxazol-2-yl)-1H-imidazo[4,5-c]pyridin-1-yl)-2-hydroxycyclohexyl)isoindolin-1-one]	< 0.1
NC(=O)c1ccccc1-c1nc2cnc(-c3nc[nH]n3)cc2n1[C@@H]1CCC[C@H](N2COc3ccc(Cl)cc3C2=O)C1 [Example 207, 2-(1-((1R,3S)-3-(6-chloro-4-oxo-2H-benzo[e][1,3]oxazin-3(4H)-yl)cyclohexyl)-6-(1H-1,2,4-triazol-3-yl)-1H-imidazo[4,5-c]pyridin-2-yl)benzamide]	< 0.1
O=C(N[C@H]1CCC[C@@H](n2c(-c3ncccc3F)nc3cnc(-c4nc[nH]n4)cc32)C1)c1cc(Cl)ccc1OC(F)F [compound 47]	< 0.1
N#Cc1ccccc1-c1nc2cnc(-c3nc[nH]n3)cc2n1[C@@H]1CCC[C@H](N2COc3ccc(Cl)cc3C2=O)C1 [Example 203, 2-(1-((1R,3S)-3-(6-chloro-4-oxo-2H-benzo[e][1,3]oxazin-3(4H)-yl)cyclohexyl)-6-(1H-1,2,4-triazol-3-yl)-1H-imidazo[4,5-c]pyridin-2-yl)benzonitrile]	< 0.1
O=C(NC1CCCCC(n2c(-c3ccccc3F)nc3cnc(-c4nc(C(F)(F)F)co4)cc32)C1O)c1cc(F)ccc1F (stereo not drawn) [Example 126, 2,5-difluoro-N-(3-(2-(2-fluorophenyl)-6-(4-(trifluoromethyl)oxazol-2-yl)-1H-imidazo[4,5-c]pyridin-1-yl)-2-hydroxycycloheptyl)benzamide]	< 0.1
CC(=O)N1C[C@@H](NC(=O)c2cc(F)ccn2)C[C@@H](n2c(-c3ccccc3F)nc3cnc(-c4nc(C)co4)cc32)C1 [Example 166, N-((3S,5R)-1-acetyl-5-(2-(2-fluorophenyl)-6-(4-methyloxazol-2-yl)-1H-imidazo[4,5-c]pyridin-1-yl)piperidin-3-yl)-4-fluoropicolinamide]	< 0.1
CN1C[C@@H](NC(=O)c2cc(Cl)ccc2F)C[C@@H](n2c(-c3ccccc3F)nc3cnc(-c4nc[nH]n4)cc32)C1 [Example 144, 5-chloro-2-fluoro-N-((3S,5R)-5-(2-(2-fluorophenyl)-6-(1H-1,2,4-triazol-3-yl)-1H-imidazo[4,5-c]pyridin-1-yl)-1-methylpiperidin-3-yl)benzamide]	0.1 to 0.5
COc1ccc(Cl)cc1C(=O)N[C@H]1C[C@H](O)C[C@@H](n2c(CC(C)C)nc3cnc(-c4ncccn4)cc32)C1 [Example 111, 5-chloro-N-((1R,3S,5S)-3-hydroxy-5-(2-isobutyl-6-(pyrimidin-2-yl)-1H-imidazo[4,5-c]pyridin-1-yl)cyclohexyl)-2-methoxybenzamide]	< 0.1
CN1C[C@@H](NC(=O)c2cc(F)ccn2)C[C@@H](n2c(-c3ccccc3OCCO)nc3cnc(-c4ncccn4)cc32)C1 [Example 162, 4-fluoro-N-((3S,5R)-5-(2-(2-(2-hydroxyethoxy)phenyl)-6-(pyrimidin-2-yl)-1H-imidazo[4,5-c]pyridin-1-yl)-1-methylpiperidin-3-yl)picolinamide]	0.5 to 1
O=C(N[C@H]1CCC[C@@H](n2c(-c3ccccc3F)nc3cnc(-c4nc[nH]n4)cc32)C1)c1ccc(F)cc1F [Example 75, 2,4-difluoro-N-((1S,3R)-3-(2-(2-fluorophenyl)-6-(1H-1,2,4-triazol-3-yl)-1H-imidazo[4,5-c]pyridin-1-yl)cyclohexyl)benzamide]	< 0.1
CN1C[C@@H](NC(=O)c2cc(Cl)ccn2)C[C@@H](n2c(-c3ccccc3OCCO)nc3cnc(-n4nccn4)cc32)C1 [Example 156, 4-chloro-N-((3S,5R)-5-(2-(2-(2-hydroxyethoxy)phenyl)-6-(2H-1,2,3-triazol-2-yl)-1H-imidazo[4,5-c]pyridin-1-yl)-1-methylpiperidin-3-yl)picolinamide]	> 1

Results, then the compound that gave them:

IC50 [µM]	Structure (SMILES)
< 0.1	O=C(N[C@H]1CCC[C@@H](n2c(-c3ncccc3OC(F)F)nc3cnc(-c4ncn[nH]4)cc32)C1)c1cc(O)ccc1Cl [compound 97]
0.5 to 1	CC(C)(C#N)Cc1nc2cnc(-c3nc[nH]n3)cc2n1[C@@H]1CCC[C@H](NC(=O)c2cc(Cl)ccn2)C1 [Example 43, 4-chloro-N-((1S,3R)-3-(2-(2-cyano-2-methylpropyl)-6-(1H-1,2,4-triazol-3-yl)-1H-imidazo[4,5-c]pyridin-1-yl)cyclohexyl)picolinamide]
> 1	CC(CCO)Cc1nc2cnc(-c3nc[nH]n3)cc2n1[C@@H]1CCC[C@H](NC(=O)c2cc(Cl)ccn2)C1 (stereo partly drawn) [Example 95, 4-chloro-N-((1S,3R)-3-(2-(4-hydroxy-2-methylbutyl)-6-(1H-1,2,4-triazol-3-yl)-1H-imidazo[4,5-c]pyridin-1-yl)cyclohexyl)picolinamide]
< 0.1	O=C(N[C@H]1CCC[C@@H](n2c(-c3ccccc3F)nc3cnc(-c4nc[nH]n4)cc32)C1)c1cc(Cl)cnn1 [Example 17, 5-chloro-N-((1S,3R)-3-(2-(2-fluorophenyl)-6-(1H-1,2,4-triazol-3-yl)-1H-imidazo[4,5-c]pyridin-1-yl)cyclohexyl)pyridazine-3-carboxamide]
0.1 to 0.5	CN1CC(NC(=O)c2cc(Cl)ccc2F)CC(n2c(-c3ncccc3F)nc3cnc(-c4nc[nH]n4)cc32)C1 (stereo not drawn) [Example 147, 5-chloro-2-fluoro-N-(5-(2-(3-fluoropyridin-2-yl)-6-(1H-1,2,4-triazol-3-yl)-1H-imidazo[4,5-c]pyridin-1-yl)-1-methylpiperidin-3-yl)benzamide]
> 1	O=C(N[C@H]1CCC[C@@H](n2c(-c3ccccc3OC3CCOC3)nc3cnc(-c4nc[nH]n4)cc32)C1)c1cc(Cl)ccn1 (stereo partly drawn) [Example 87, 4-chloro-N-((1S,3R)-3-(2-(2-((tetrahydrofuran-3-yl)oxy)phenyl)-6-(1H-1,2,4-triazol-3-yl)-1H-imidazo[4,5-c]pyridin-1-yl)cyclohexyl)picolinamide]
< 0.1	O=C(N[C@H]1CCC[C@@H](n2c(-c3ccccc3OCCO)nc3ccc(-c4nc[nH]n4)cc32)C1)c1cc(F)ccc1F [Example 228, 2,5-difluoro-N-((1S,3R)-3-(2-(2-(2-hydroxyethoxy)phenyl)-6-(1H-1,2,4-triazol-3-yl)-1H-benzo[d]imidazol-1-yl)cyclo-hexyl)benzamide]
< 0.1	COc1ccc(Cl)cc1C(=O)N[C@H]1CCCC[C@@H](n2c(-c3c(F)cccc3OC)nc3cnc(-c4nc[nH]n4)cc32)[C@@H]1O [Example 110, 5-chloro-N-((1S,2R,3R)-3-(2-(2-fluoro-6-methoxyphenyl)-6-(1H-1,2,4-triazol-3-yl)-1H-imidazo[4,5-c]pyridin-1-yl)-2-hydroxycycloheptyl)-2-methoxybenzamide]
